{"source": "patent US20100099759A1", "about": "“AGRICULTURAL APPLICATIONS OF SILVER […]” (priority 2008, published 2010)", "test_system": "Phakopsora pachyrhizi spores", "method": "The leaves were examined with a stereoscope in order to identify those with a high degree of sporulation. Leaves were cut in standard size pieces.\nThree different concentrations of SDC in distilled water were prepared having 5 ppm, 10 ppm and 15 ppm of silver, respectively. Ten ml of each solution was placed in separate test tubes. Ten selected pieces of soybean leaves were place in each test tube and stirred to suspend the spores present in the rust spots. The same procedure was used for a control, omitting the SDC in the solution. The leaves were left in the solution for two hours. For each of the product dilutions, ten Petri dishes containing water-agar substrate were inoculated with 100 spores each and maintained for 6 hours in the dark. Lactophenol dye was used to stain the mycelium growth, which was evaluated visually be microscope.\nA second experiment was performed using the protocol above, with the following additions. Duplicate solutions were made using Well Water from Parana State, Southern Brazil (WW) and Product Water from Reverse Osmosis (PW). The surfactant sodium lauryl sulphate was added to each solution to a concentration of 0.01% w/w. Again, duplicate Petri dishes were inoculated with 100 spores for each concentration of SDC in the two water types and for […] the control.", "note": "Read-outs that look alike come from different tables or passages of the source."}
{"smiles": "O=C(O)CC(O)(CC(=O)O)C(=O)[O-].[Ag+]", "note": "[SDC, silver dihydrogen citrate]", "values": [{"measurement": "germination of spores from soybean leaves (summary in words)", "setting": "5, 10 and 15 ppm silver in distilled water, well water and product water from reverse osmosis, with or without surfactant", "result": "almost totally inhibited"}, {"measurement": "% Germination", "setting": "first experiment, 5 ppm silver in distilled water, 2 h in solution, 6 h in the dark, control 16", "result": 5.0, "unit": "%"}, {"measurement": "% Germination", "setting": "first experiment, 10 ppm silver in distilled water, 2 h in solution, 6 h in the dark, control 16", "result": 4.0, "unit": "%"}, {"measurement": "% Germination", "setting": "first experiment, 15 ppm silver in distilled water, 2 h in solution, 6 h in the dark, control 16", "result": 5.0, "unit": "%"}, {"measurement": "% Germination", "setting": "second experiment, 5 ppm, Product Water from Reverse Osmosis (PW), 0.01% w/w sodium lauryl sulphate, control 40", "result": 1.6, "unit": "%"}, {"measurement": "% Germination", "setting": "second experiment, 5 ppm, Well Water (WW), 0.01% w/w sodium lauryl sulphate, control 40", "result": 1.1, "unit": "%"}, {"measurement": "% Germination", "setting": "second experiment, 10 ppm, Product Water from Reverse Osmosis (PW), 0.01% w/w sodium lauryl sulphate, control 40", "result": 0.4, "unit": "%"}, {"measurement": "% Germination", "setting": "second experiment, 10 ppm, Well Water (WW), 0.01% w/w sodium lauryl sulphate, control 40", "result": 0.5, "unit": "%"}, {"measurement": "% Germination", "setting": "second experiment, 15 ppm, Product Water from Reverse Osmosis (PW), 0.01% w/w sodium lauryl sulphate, control 40", "result": 0.5, "unit": "%"}, {"measurement": "% Germination", "setting": "second experiment, 15 ppm, Well Water (WW), 0.01% w/w sodium lauryl sulphate, control 40", "result": 0.2, "unit": "%"}]}
